{"source": "patent US12275694B2", "about": "“Pharmaceutically acceptable salts of [2-(3-fluoro-5-methane-sulfonylphenoxy)ethyl](propyl)amine and uses thereof” (INTEGRATIVE RESEARCH LABORATORIES SWEDEN AB, priority 2019, dated 2025)", "key": {"[1]": {"assay": "Hygroscopicity test, weighed samples kept at varied humidity at 30° C. for one week", "assay_type": "physicochemical", "conditions": "for Hygroscopicity (in words): any tested relative humidity", "protocol": "After one week, the samples were weighed again and based on the original weight the percentage weight difference was calculated."}, "[2]": {"assay": "Plasma concentration of the drug in the human clinical study", "assay_type": "in vivo", "conditions": "2 hours after administration in the morning, 2.5 mg b.i.d.-10 mg b.i.d., patients"}, "[3]": {"system": "Parkinson's patients with L-dopa induced dyskinesia (LIDs)", "assay": "Human clinical study, 24-hour patient home diaries, good ON time", "assay_type": "in vivo", "conditions": "2.0 mg up to 10 mg such as 2.5, 5.0 or 7.5 mg, compared with an amount equal to or above 10 mg", "text": "Home diaries have gained wide acceptance as endpoints for clinical development of therapeutics aiming to reduce treatment-related motor complications. Motor fluctuations are associated with compromise in activities of daily living and health-related quality of life. In clinical trials performed by Integrative Research Laboratories Sweden AB patients record their 24-hours motor function in 30-minute intervals, beginning at midnight. For each 30-minute interval the patient rates the state he or she has been in for the past 30 minutes; OFF, ON without troublesome dyskinesia or ON with troublesome dyskinesia. The patient also denoted the time when he or she has been asleep.\nIn general, an “OFF” time reduction or “good ON-time” increase of 1 hour may be considered clinically significant and has been used as an assumption in power calculations in clinical trials. […]\nA valid diary is defined as not having more than 2 hours of invalid data entries (4 invalid entries) over a given 24-hour period. An invalid diary entry is defined as more than one entry recorded in each half-hour interval, an unreadable entry, or the absence of an entry in each half-hour interval. […]"}, "[4]": {"protocol": "The temperature was 25° C. using step intervals of 10% between 0% and 95% RH in two consecutive cycles."}}, "note": "Like-named read-outs stand apart in the source and are kept apart here.", "data": [{"compound": "CCCNCCOc1cc(F)cc(S(C)(=O)=O)c1", "note": "[Example 7, [2-(3-fluoro-5-methanesulfonylphenoxy)ethyl](propyl)amine hemi-L-tartrate]", "values": [{"measurement": "Hygroscopicity (in words)", "setting": "[1]", "value": "very low hygroscopicity"}, {"measurement": "Hygroscopicity (in words)", "setting": "[1]; listed as L-tartaric acid salt", "value": "not hygroscopic at any relative humidities"}, {"measurement": "Weight change", "setting": "[1]; even at very high relative humidity such as 73%, 75%, 83% or 97% for 7 days at 30° C.", "value": "≤ 0.3", "unit": "%"}, {"measurement": "concentration at 2 h", "setting": "[2]", "value": "50 to 200", "unit": "nM"}]}, {"compound": "CCCNCCOc1cc(F)cc(S(C)(=O)=O)c1", "note": "[Formula IV]", "values": [{"measurement": "Hygroscopicity (in words)", "setting": "[1]", "value": "not being hygroscopic"}, {"measurement": "Weight change", "setting": "[1]; at any humidity such as any relative humidity", "value": "≤ 0.3", "unit": "% by weight"}]}, {"compound": "CCCNCCOc1cc(F)cc(S(C)(=O)=O)c1", "note": "[Example 2, [2-(3-fluoro-5-methanesulfonylphenoxy)ethyl](propyl)amine]", "values": [{"measurement": "Good ON time (in words)", "setting": "[3]", "value": "increased the good ON time to a larger extent"}]}, {"compound": "CCCNCCOc1cc(F)cc(S(C)(=O)=O)c1.Cl", "note": "[hydrochloric acid salt, hydrochloric acid salt of [2-(3-fluoro-5-methanesulfonylphenoxy)-ethyl](propyl)amine]", "values": [{"measurement": "Weight gain", "setting": "[4]; 95% relative humidity and 25° C., DVS", "value": "approximately 3%"}, {"measurement": "Hygroscopicity (in words)", "setting": "[4]; high relative humidities", "value": "hygroscopic at high relative humidities"}]}]}
